# Several values for one entry are separate records, joined by “and”; a condition that tells them apart may be missing. Equal values may be shown once. Entries after “also recorded” stand apart in the source; their conditions may differ. Read-outs that look alike come from different tables or passages of the source.
# What was measured:
# hDHFR = molecular target: T1, hDHFR (Homo sapiens, UniProt P00374); assay: hDHFR spectrophotometric enzyme inhibition assay; type: biochemical; details: TES buffer pH 7.4, 50 µM H2FA; spread from CI95 of fitting
# T1 construct: His tag; made in house; host or cells: E. coli
# T1 sequence (P00374 1-187): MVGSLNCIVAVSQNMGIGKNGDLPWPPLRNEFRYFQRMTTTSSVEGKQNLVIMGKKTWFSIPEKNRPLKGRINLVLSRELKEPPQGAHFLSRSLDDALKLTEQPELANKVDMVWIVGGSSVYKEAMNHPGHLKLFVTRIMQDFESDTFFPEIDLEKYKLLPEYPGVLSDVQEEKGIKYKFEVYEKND
# Procedure: (§1) Recombinant TbPTR1, TbDHFR-TS, and hDHFR were expressed in E. coli as histidine-tagged proteins and purified following established protocols. Purified recombinant enzymes were stored in stock solutions having concentrations of 0.93 mg/mL, 0.53 mg/mL, and 0.88 mg/mL, for TbPTR1, TbDHFR-TS, and hDHFR, respectively. A direct spectrophotometric kinetic test was used to evaluate the inhibitory activity of the compound library. A Jasco-V730 double beam spectrophotometer (Jasco Europe) was employed to perform the assays. Fixed final concentrations of purified TbPTR1, TbDHFR-TS, and hDHFR (15 nM, 55 nM, and 15 nM respectively) were incubated in semi-micro plastic cuvettes (Brand, Tech Scientific, Essex, UK) with 400 µL of sodium citrate buffer at pH = 3.7 and TES buffer (100 mM TES, 50 mM MgCl2, 13 mM CH2O, 2 mM EDTA, 150 mM 2-mercaptoethanol, pH 7.4), plus 25 µM 7,8-dihydro-L-biopterin (H2B, Sigma Aldrich) for TbPTR1 and 50 µM of 7,8-dihydrofolic acid (H2FA, Sigma Aldrich) for TbDHFR-TS and hDHFR enzymes.
# (§2) Residual NADP(H) absorption (λmax = 340 nm), converted to NADP^+ as cofactor, was monitored for 180 s of the ongoing reaction and its Δ(OD)/min was registered for v(0) slope at 22.4 °C. Each inhibition assay was performed in triplicate, and five to six different concentrations of compounds were tested to assess their relative IC50.
# (§3) The equation used to interpolate points was y = y(min) + (y(max) − y(min))/(1 + (IC50/x)^^HillSlope), where HillSlope was constrained at −1 (standard Michaelis–Menten behaviour for competitive inhibitors), from which IC50 were extrapolated. Standard deviations—as reported in Table 1—were obtained from 95% confidence interval (CI95) of fitting.
# TbDHFR-TS = molecular target: T2, TbDHFR-TS (Trypanosoma brucei brucei, UniProt Q27783); assay: biochemical; type: biochemical; details: for Selectivity IC50 hDHFR /IC50 TbDHFR-TS: ratio, PYR and CYC from Ki values
# T2 construct: His tag; made in house; host or cells: E. coli
# T2 sequence (Q27783 whole entry): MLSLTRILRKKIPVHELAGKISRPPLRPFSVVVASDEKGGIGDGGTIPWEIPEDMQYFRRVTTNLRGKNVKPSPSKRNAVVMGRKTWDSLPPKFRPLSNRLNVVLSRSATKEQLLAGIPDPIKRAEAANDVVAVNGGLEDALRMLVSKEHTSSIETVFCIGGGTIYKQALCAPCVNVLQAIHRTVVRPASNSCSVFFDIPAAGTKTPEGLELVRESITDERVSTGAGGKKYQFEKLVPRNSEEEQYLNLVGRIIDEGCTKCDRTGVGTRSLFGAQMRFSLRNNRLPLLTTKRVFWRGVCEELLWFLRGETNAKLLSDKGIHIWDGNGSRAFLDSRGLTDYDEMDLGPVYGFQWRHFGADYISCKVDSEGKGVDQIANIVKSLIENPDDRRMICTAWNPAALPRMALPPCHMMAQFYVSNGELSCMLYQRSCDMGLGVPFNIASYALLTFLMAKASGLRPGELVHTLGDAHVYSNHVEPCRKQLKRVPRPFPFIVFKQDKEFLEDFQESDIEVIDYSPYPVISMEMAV
# Procedure: as §1, §2, §3
# TbPTR1 [1] = molecular target: T3, TbPTR1 (Trypanosoma brucei brucei, UniProt O76290); assay: biochemical; type: biochemical; details: for Selectivity IC50 TbDHFR-TS /IC50 TbPTR1: ratio, for PYR and CYC calculated assuming a competitive inhibition mechanism; for IC50: recombinant enzyme, citrate buffer pH 3.7, 25 µM H2B, spread from CI95 of fitting; for fold improvement of inhibitory activity against TbPTR1 relative to CYC: versus CYC IC50
# T3 construct: His tag; made in house; host or cells: E. coli
# T3 sequence (O76290 1-268): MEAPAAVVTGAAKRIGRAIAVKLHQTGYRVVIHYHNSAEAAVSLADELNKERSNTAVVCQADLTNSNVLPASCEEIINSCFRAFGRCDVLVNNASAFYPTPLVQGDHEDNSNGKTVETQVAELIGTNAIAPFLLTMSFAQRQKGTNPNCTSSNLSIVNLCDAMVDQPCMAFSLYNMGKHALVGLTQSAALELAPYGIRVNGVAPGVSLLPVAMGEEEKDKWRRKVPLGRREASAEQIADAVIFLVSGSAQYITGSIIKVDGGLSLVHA
# Procedure: as §1, §2, §3
# TbPTR1 [2] = molecular target: T3, TbPTR1; details: read-out: TbPTR1 IC50; cited from earlier work
# [3] = Stability of compound 6 in solution at different pH (HPLC-ELSD); type: physicochemical; details: pH 10.5, 7 and 3.7, room temperature, overnight / 30 h
# Procedure: Although it was unusual, we suspected the potential hydrolysis of the acetamido group to generate an amine and acetic acid. Therefore, we tested the compound stability at pH 10.5, 7, and 3.7 overnight at room temperature.
# We have studied the stability of the CYC-like compound 6 to test the hydrolysis of the N-acetyl group in different pH buffers and to screen its putative prodrug action. We prepared three 10 µM solutions from a 100 µM DMSO stock of compound 6 in double deionized water, at pH 10.5 with NaOH, and in citrate buffer, pH 3.7, used for kinetic assays with TbPTR1. We have monitored the purity of these solutions with HPLC–ELSD just after compound dilutions. A volume of 7 µL of each solution was immediately injected in an HPLC Atlantis dC18, 150 × 3.9 mm, 3 µm ID column (Waters Corp, Milford, MA, US) coupled to an ELSD detector (Agilent 1260 Infinity II system). Compounds were eluted with 0.1% formic acid in water (A) and pure acetonitrile (B), gradient 10% to 50% B for 10 min, at 0.5 mL min^−1, room temperature. Detector parameters were set as follows: Neb = 30 °C, Evap = 40 °C, N2 flow = 1.6 SLM, smoothing = 3.0 s. […] Compound stability also was evaluated with 1H-NMR, obtaining the same results. We thus concluded that compound 6 is not susceptible to pH mediated hydrolysis, and acts as a TbPTR1 inhibitor as N-acetylated compounds.
# [4] = molecular target: the molecule itself; assay: crystal structure; TbPTR1 crystals by hanging drop vapour diffusion at room temperature, 2-2.5 M sodium acetate, 0.1 M sodium citrate pH 5; soaked with 3 mM PYR; space group P21 with a functional tetramer in the asymmetric unit; NADP(H) bound
# [5] = TES buffer pH 7.4, 50 µM H2FA, spread from CI95 of fitting, read-out: TbDHFR-TS (IC50 µM)
Molecule,IC50 (hDHFR) [µM],IC50 (TbDHFR-TS; [5]) [µM],Selectivity IC50 hDHFR /IC50 TbDHFR-TS (TbDHFR-TS),Selectivity IC50 TbDHFR-TS /IC50 TbPTR1 (TbPTR1 [1]),IC50 (TbPTR1 [1]) [µM],IC50 (TbDHFR-TS) [µM],IC50 (TbPTR1 [2]) [µM],fold improvement of inhibitory activity against TbPTR1 relative to CYC (TbPTR1 [1]) [fold],"compound stability (hydrolysis of N-acetyl group), HPLC analysis [3]",stoichiometry N [4]
CC1(C)N=C(N)N=C(N)N1c1ccc(O)cc1 [Compound 4],284,89,3.19,21.7,4.1,–,–,–,–,–
CC1N=C(N)N=C(N)N1c1ccc(Cl)cc1 (stereo not shown) [Compound 1],337,–,3.27,16.9,6.02,103,–,–,–,–
CC1(C)N=C(N)N=C(N)N1c1ccc(Cl)c(Cl)c1 [Compound 1a],–,–,–,–,–,–,0.692,–,–,–
NC1=NC2(CCCCC2)N(c2ccc(Cl)cc2)C(N)=N1 [Compound 3],65.6,17.6,3.73,14.4,1.22,–,–,30,–,–
NC1=NC(c2ccc([N+](=O)[O-])cc2)N(c2ccc(Cl)c(Cl)c2)C(N)=N1 (stereo not shown) [Compound 2a],–,–,–,–,–,–,0.186,–,–,–
"COc1ccc(N2C(N)=NC(N)=NC2(C)C)cc1 [Compound 5, 1-(4-methoxyphenyl)-6,6-dimethyl-1,6-dihydro-1,3,5-triazine-2,4-diamine]",413,33.2,12.4,49.6,0.67,–,–,46,–,–
"CC1(C)N=C(N)N=C(N)N1c1ccc(Cl)cc1 [CYC, cycloguanil]",–,–,–,–,–,–,31.6,–,–,–
"COc1ccc(N2C(N)=NC(NC(C)=O)=NC2(C)C)cc1 [Compound 6, N-[6-amino-5-(4-methoxyphenyl)-4,4-dimethyl-4,5-dihydrotriazin-2-yl]acetamide]",62.5,18.9,3.31,22.8,0.83,–,–,–,fully stable; also recorded: no changes in chromatograms were detected,–
CCCC1N=C(N)N=C(N)N1c1ccc(Cl)cc1 (stereo not shown) [Compound 2],66.7,–,9.2 and 9.19,0.26,27.5,7.26,–,–,–,–
"Trypanosoma brucei pteridine reductase 1 (enzyme, pteridine reductase 1 (PTR1) of Trypanosoma brucei, recombinant; also called TbPTR1; PTR1; source: E. coli, histidine-tagged, purified following established protocols) MEAPAAVVTGAAKRIGRAIAVKLHQTGYRVVIHYHNSAEAAVSLADELNKERSNTAVVCQADLTNSNVLPASCEEIINSCFRAFGRCDVLVNNASAFYPTPLVQGDHEDNSNGKTVETQVAELIGTNAIAPFLLTMSFAQRQKGTNPNCTSSNLSIVNLCDAMVDQPCMAFSLYNMGKHALVGLTQSAALELAPYGIRVNGVAPGVSLLPVAMGEEEKDKWRRKVPLGRREASAEQIADAVIFLVSGSAQYITGSIIKVDGGLSLVHA",–,–,–,–,–,–,–,–,–,4

# From paper PMC8308740 (Pharmaceuticals, 2021)
